pIC50: −log10 of the molar value. Values joined by “and” are separate entries in the source; they are usually repeats but may differ in a detail not shown here. Equal values may be shown once. Read-outs that look alike come from different tables or passages of the source.
How the values were obtained:
MCF‐7 cells [1] = tested on: MCF‐7 cells; parameters: method as in PMID 36807947; details: 470 nm LED, 17±1.64 J/cm^2, published previously, read-out: Light IC50 (converted); cited from earlier work
CHO cells = test: Hypoxic phototoxicity (CoCl2 induced hypoxia); assay type: cell-based, Chinese Hamster; details: Cricetulus griseus, 300 μM CoCl2 4 h, 470 nm LED, maximum 1 μM tested, read-out: hypoxic IC50 (light)
Method: (§1) Cobalt chloride (CoCl2), a popular chemical hypoxia inducer, was added to the cells (after incubation with B2PI or MB2PI) at a total concentration of 300 μM CoCl2 in media and incubated for 4 h to mimic hypoxic conditions. In comparison to low‐oxygen induced hypoxia, this method stabilises hypoxia inducible factor 1 alpha subunit (HIF‐1α) for some hours after treatment, allowing a greater window for the phototoxicity studies.[52] We have previously confirmed the chemical induction of hypoxia with CoCl2 using an enzyme linked immunosorbent assay to detect HIF‐1α in cell lysates.[53] The cells were irradiated immediately upon removal of the media/CoCl2 solution as per the normoxic phototoxicity protocol.
(§2) Dark‐ and photo‐toxicity studies were performed by seeding CHO and MCF‐7 cells in clear 96‐well plates (Nunc) and treating with varying concentrations of B2P, MB2P, B2PI and MB2PI. Phototoxicity experiments were carried out using a 470 nm LED. For hypoxic phototoxicity studies, hypoxia was mimicked by adding CoCl2 to the cells prior to irradiation. Cell viability was determined using the alamar blue assay and absorbance measured with a BMG LABTECH CLARIOstar plate reader.
(§3) Hypoxic Phototoxicity Studies
(§4) Hypoxic phototoxicity studies were performed as per routing phototoxicity protocol. Hypoxia […]
(§5) A 1 M stock of CoCl2 in sterile 1X PBS […]

MCF‐7 cells [2] = test: Hypoxic phototoxicity (CoCl2 induced hypoxia); assay type: cell-based; details: Homo sapiens, MCF7, 300 μM CoCl2 4 h, 470 nm LED, maximum 1 μM tested, read-out: hypoxic IC50 (light)
Method: as §1, §2, §3, §4, §5

[3] = Photophysical properties (absorption, emission, quantum yield, lifetime) in solvents; assay type: physicochemical; details: for Φf: absolute quantum yield, integrating sphere; for τave: intensity weighted average lifetime; for kr: kr=ΦF/τave; for emission intensity from water relative to emission intensity from toluene: matched absorption, water with 10 % DMSO
Excerpt: The absorption and emission spectra of MB2P and MB2PI are shown in Figure 3, in a range of solvents across polarities. […] The absorption maxima is largely unaffected by solvent, similar to B2P/B2PI. The extinction coefficient is also modestly affected for MB2P but does vary with solvent for MB2PI, although the change is not correlated with solvent polarity. All compounds also show characteristic perylene absorption features between 400 and 430 nm. Also consistent with this previous study, the emission spectra are strongly solvent dependent. Intensely emissive from non‐polar media, MB2P and MB2PI are minimally emissive in polar (ethanol and DMSO) and aqueous media, (with 10 % DMSO for solubilisation). For example, under matched absorption conditions used to generate Figure 3, the emission intensity from water was 0.13 % (MB2P) and 1.6 % (MB2PI) of the emission intensity from toluene (see Figure S20).
Figure 3 Right, Absorption spectra of (A) MB2P and (B) MB2PI in different solvents at 10 μM, and, left, their respective emission. Excitation wavelength 532 nm, data recorded with 2.5–2.5 nm slit widths.

HeLa cells = tested on: HeLa cells; parameters: method as in PMID 31743947; details: 9.6 J/cm^2, 500 nm irradiation; cited from earlier work

SMILES	Mol. Bright ([3]; Dioxane)	Stokes Shift ([3]; Dioxane) [cm⁻¹]	knr ([3]; Dioxane)	λem ([3]; Dioxane) [nm]	τ1 ([3]; Dioxane) [ns]	ϵ ([3]; Dioxane) [M⁻¹ cm⁻¹]	Φf ([3]; Dioxane)	τave ([3]; Dioxane) [ns]	kr ([3]; Dioxane)	Mol. Bright ([3]; Toluene)	Stokes Shift ([3]; Toluene) [cm⁻¹]	knr ([3]; Toluene)	λabs ([3]; Toluene) [nm]	λem ([3]; Toluene) [nm]	τ1 ([3]; Toluene) [ns]	ϵ ([3]; Toluene) [M⁻¹ cm⁻¹]	Φf ([3]; Toluene)	τave ([3]; Toluene) [ns]	kr ([3]; Toluene)	emission intensity from water relative to emission intensity from toluene [3] [%]	further results
CC1=C(I)C(C)=[N+]2C1=C(c1ccccc1)c1c(C)c(-c3ccc4c5cccc6cccc(c7cccc3c74)c65)c(C)n1[B-]2(F)F [B2PI]	–	–	–	–	–	–	–	–	–	–	–	–	–	–	–	–	–	–	–	–	IC50 (MCF‐7 cells [1]): 235 nM
CC1=C(c2ccc3c4cccc5cccc(c6cccc2c63)c54)C(C)=[N+]2C1=C(c1c(C)cc(C)cc1C)c1c(C)c(I)c(C)n1[B-]2(F)F [MB2PI]	4374	3049	85 10^7 s^−1	635	4.0±0.1	72900	0.06	1.1±0.0	5.73 10^7 s^−1	6534	2854	114 10^7 s^−1	534	630	1.6±0.1	72600	0.09	0.8±0.0	11.2 10^7 s^−1	1.6	pIC50 (CHO cells): < 6.00; pIC50 (MCF‐7 cells [2]): < 6.00; Amp of τ1 ([3]; Dioxane): 2.5%; Amp of τ2 ([3]; Dioxane): 97.5%; λabs ([3]; Dioxane): ~532 nm; τ2 ([3]; Dioxane): 0.7 ns and 0.7±0.01 ns; Amp of τ1 ([3]; Toluene): 5.6%; Amp of τ2 ([3]; Toluene): 94.4%; τ2 ([3]; Toluene): 0.7 ns and 0.7±0.01 ns
CC1=C(c2ccc3c4cccc5cccc(c6cccc2c63)c54)C(C)=[N+]2C1=C(c1c(C)cc(C)cc1C)c1c(C)cc(C)n1[B-]2(F)F [MB2P]	20516	3131	25 10^7 s^−1	614	3.1±0.1	89200	0.23	3.1±0.1	7.4 10^7 s^−1	32148	3002	23 10^7 s^−1	517	612	2.8±0.0	89300	0.36	2.8±0.0	12.9 10^7 s^−1	0.13	–
CC1=CC(C)=[N+]2C1=C(c1ccccc1)c1c(C)c(-c3ccc4c5cccc6cccc(c7cccc3c74)c65)c(C)n1[B-]2(F)F [B2P]	–	–	–	–	–	–	–	–	–	–	–	–	–	–	–	–	–	–	–	–	phototoxic index (PI) (HeLa cells): 1041
